Results as given in PubChem BioAssay (NCI).
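48-hour exposure; five concentrations; linearly interpolated endpoints. GI50 marks 50% less growth. The concentration for full growth arrest is given as TGI.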

Legend:
Test in all cases: inhibition of tumour cell growth, NCI panel, 48 h
MDA-MB-231 breast = tested on: MDA-MB-231 breast
OVCAR-4 ovarian = tested on: OVCAR-4 ovarian
NCI-H522 lung = tested on: NCI-H522 lung
SK-OV-3 ovarian = tested on: SK-OV-3 ovarian
SK-MEL-28 melanoma = tested on: SK-MEL-28 melanoma
MALME-3M melanoma = tested on: MALME-3M melanoma
DU-145 prostate = tested on: DU-145 prostate
HOP-92 NSCLC = tested on: HOP-92 NSCLC
SF-539 CNS = tested on: SF-539 CNS
HCT-15 colon = tested on: HCT-15 colon
RPMI-8226 leukemia = tested on: RPMI-8226 leukemia
NCI/ADR-RES ovarian = tested on: NCI/ADR-RES ovarian
PC-3 prostate = tested on: PC-3 prostate
ACHN renal = tested on: ACHN renal
A498 renal = tested on: A498 renal
KM12 colon = tested on: KM12 colon
MOLT-4 leukemia = tested on: MOLT-4 leukemia
LOX IMVI melanoma = tested on: LOX IMVI melanoma
NCI-H460 lung = tested on: NCI-H460 lung
MCF7 breast = tested on: MCF7 breast
HT29 colon = tested on: HT29 colon
SF-295 CNS = tested on: SF-295 CNS
SF-268 CNS = tested on: SF-268 CNS
EKVX NSCLC = tested on: EKVX NSCLC
OVCAR-5 ovarian = tested on: OVCAR-5 ovarian
RXF 393 renal = tested on: RXF 393 renal
HL-60(TB) leukemia = tested on: HL-60(TB) leukemia
SN12C renal = tested on: SN12C renal
BT-549 breast = tested on: BT-549 breast
786-0 renal = tested on: 786-0 renal
MDA-MB-435 = tested on: MDA-MB-435
SK-MEL-2 melanoma = tested on: SK-MEL-2 melanoma
COLO 205 colon = tested on: COLO 205 colon
HCC-2998 colon = tested on: HCC-2998 colon
UACC-257 melanoma = tested on: UACC-257 melanoma
HS 578T breast = tested on: HS 578T breast
A549 NSCLC = tested on: A549 NSCLC
M14 melanoma = tested on: M14 melanoma
OVCAR-3 ovarian = tested on: OVCAR-3 ovarian
K-562 leukemia = tested on: K-562 leukemia
NCI-H226 lung = tested on: NCI-H226 lung
U251 CNS = tested on: U251 CNS
UACC-62 melanoma = tested on: UACC-62 melanoma
SNB-75 CNS = tested on: SNB-75 CNS
SR leukemia = tested on: SR leukemia
HOP-62 NSCLC = tested on: HOP-62 NSCLC
CAKI-1 renal = tested on: CAKI-1 renal
UO-31 renal = tested on: UO-31 renal
HCT-116 colon = tested on: HCT-116 colon
CCRF-CEM leukemia = tested on: CCRF-CEM leukemia
SK-MEL-5 melanoma = tested on: SK-MEL-5 melanoma
IGROV1 ovarian = tested on: IGROV1 ovarian
NCI-H23 lung = tested on: NCI-H23 lung
TK-10 renal = tested on: TK-10 renal
OVCAR-8 ovarian = tested on: OVCAR-8 ovarian
SNB-19 CNS = tested on: SNB-19 CNS
SW-620 colon = tested on: SW-620 colon
T-47D breast = tested on: T-47D breast

## Cc1ccc2c(n1)C(=O)C(Cl)=C(Nc1ccc(C#N)cc1)C2=O
MDA-MB-231 breast
  GI50: 5.59 µM
  TGI: 25.8 µM
OVCAR-4 ovarian
  GI50: 1.59 µM
  TGI: 3.08 µM
NCI-H522 lung
  GI50: 1.75 µM
  TGI: 3.75 µM
SK-OV-3 ovarian
  GI50: 11.7 µM
  TGI: 27.7 µM
SK-MEL-28 melanoma
  GI50: 2.46 µM
  TGI: 5.74 µM
MALME-3M melanoma
  GI50: 1.74 µM
  TGI: 3.36 µM
DU-145 prostate
  GI50: 2.13 µM
  TGI: 4.48 µM
HOP-92 NSCLC
  GI50: 1.71 µM
  TGI: 3.41 µM
SF-539 CNS
  GI50: 10.2 µM
  TGI: 23 µM
HCT-15 colon
  GI50: 1.74 µM
  TGI: 3.66 µM
RPMI-8226 leukemia
  GI50: 2.19 µM
  TGI: 5.74 µM
NCI/ADR-RES ovarian
  GI50: 3.55 µM
  TGI: 17.7 µM
PC-3 prostate
  GI50: 10 µM
  TGI: 25.1 µM
ACHN renal
  GI50: 1.81 µM
  TGI: 3.3 µM
A498 renal
  GI50: 16.3 µM
  TGI: > 100 µM
KM12 colon
  GI50: 19.9 µM
  TGI: > 100 µM
MOLT-4 leukemia
  GI50: 0.47 µM
  TGI: 2.56 µM
LOX IMVI melanoma
  GI50: 1.53 µM
  TGI: 3.46 µM
NCI-H460 lung
  GI50: 30.2 µM
  TGI: > 100 µM
MCF7 breast
  GI50: 1.9 µM
  TGI: 4.62 µM
HT29 colon
  GI50: 3.06 µM
  TGI: 10.6 µM
SF-295 CNS
  GI50: 17.6 µM
  TGI: 39.2 µM
SF-268 CNS
  GI50: 8.36 µM
  TGI: 25.6 µM
EKVX NSCLC
  GI50: 2.19 µM
  TGI: 5.59 µM
OVCAR-5 ovarian
  GI50: 17.7 µM
  TGI: 34.8 µM
RXF 393 renal
  GI50: 1.45 µM
  TGI: 2.79 µM
HL-60(TB) leukemia
  GI50: 1.08 µM
  TGI: 3.05 µM
SN12C renal
  GI50: 5.68 µM
  TGI: 25.4 µM
BT-549 breast
  GI50: 2.8 µM
  TGI: 12 µM
786-0 renal
  GI50: 1.74 µM
  TGI: 3.24 µM
MDA-MB-435
  GI50: 6.99 µM
  TGI: 22.7 µM
SK-MEL-2 melanoma
  GI50: 11.6 µM
  TGI: 24.6 µM
COLO 205 colon
  GI50: 1.66 µM
  TGI: 3.51 µM
HCC-2998 colon
  GI50: 3.83 µM
  TGI: 16.1 µM
UACC-257 melanoma
  GI50: 1.64 µM
  TGI: 3.17 µM
HS 578T breast
  GI50: 14.6 µM
  TGI: 56.1 µM
A549 NSCLC
  GI50: 35.6 µM
  TGI: > 100 µM
M14 melanoma
  GI50: 6.12 µM
  TGI: 21.9 µM
OVCAR-3 ovarian
  GI50: 1.84 µM
  TGI: 3.51 µM
K-562 leukemia
  GI50: 0.351 µM
  TGI: 1.87 µM
NCI-H226 lung
  GI50: 4.36 µM
  TGI: 17.6 µM
U251 CNS
  GI50: 13 µM
  TGI: 28.7 µM
UACC-62 melanoma
  GI50: 10.1 µM
  TGI: 25.9 µM
SNB-75 CNS
  GI50: 6.8 µM
  TGI: 34.5 µM
SR leukemia
  GI50: 0.375 µM
  TGI: 2.25 µM
HOP-62 NSCLC
  GI50: 17.9 µM
  TGI: 50.7 µM
CAKI-1 renal
  GI50: 1.7 µM
  TGI: 3.31 µM
UO-31 renal
  GI50: 1.54 µM
  TGI: 2.97 µM
HCT-116 colon
  GI50: 1.83 µM
  TGI: 3.78 µM
CCRF-CEM leukemia
  GI50: 0.358 µM
  TGI: 2.2 µM
SK-MEL-5 melanoma
  GI50: 4.75 µM
  TGI: 17.3 µM
IGROV1 ovarian
  GI50: 10.7 µM
  TGI: 24.7 µM
NCI-H23 lung
  GI50: 1.84 µM
  TGI: 4.58 µM
TK-10 renal
  GI50: 1.83 µM
  TGI: 3.27 µM
OVCAR-8 ovarian
  GI50: 10.1 µM
  TGI: 28.2 µM
SNB-19 CNS
  GI50: 15.7 µM
  TGI: 39.8 µM
SW-620 colon
  GI50: 1.76 µM
  TGI: 3.87 µM
T-47D breast
  GI50: 1.87 µM
  TGI: 4.79 µM
